These results are taken from patent US20240390471A1, “COMPOUNDS AND ADJUVANT FORMULATIONS USEFUL IN PNEUMOCOCCAL VACCINES” (Merck Sharp & Dohme LLC, priority 2023, published 2024).

Test [1] concerns S. pneumoniae serotypes of PCV13. Conditions: PCV13 plus 3M-052 compared to PCV13 alone; cited from earlier work.
For another test, the target named is T1, human TLR7 (Homo sapiens, UniProt Q9NYK1).
T1 construct: host or cells: HEK-Blue 293 cells expressing human TLR7
T1 sequence (Q9NYK1 27-1049): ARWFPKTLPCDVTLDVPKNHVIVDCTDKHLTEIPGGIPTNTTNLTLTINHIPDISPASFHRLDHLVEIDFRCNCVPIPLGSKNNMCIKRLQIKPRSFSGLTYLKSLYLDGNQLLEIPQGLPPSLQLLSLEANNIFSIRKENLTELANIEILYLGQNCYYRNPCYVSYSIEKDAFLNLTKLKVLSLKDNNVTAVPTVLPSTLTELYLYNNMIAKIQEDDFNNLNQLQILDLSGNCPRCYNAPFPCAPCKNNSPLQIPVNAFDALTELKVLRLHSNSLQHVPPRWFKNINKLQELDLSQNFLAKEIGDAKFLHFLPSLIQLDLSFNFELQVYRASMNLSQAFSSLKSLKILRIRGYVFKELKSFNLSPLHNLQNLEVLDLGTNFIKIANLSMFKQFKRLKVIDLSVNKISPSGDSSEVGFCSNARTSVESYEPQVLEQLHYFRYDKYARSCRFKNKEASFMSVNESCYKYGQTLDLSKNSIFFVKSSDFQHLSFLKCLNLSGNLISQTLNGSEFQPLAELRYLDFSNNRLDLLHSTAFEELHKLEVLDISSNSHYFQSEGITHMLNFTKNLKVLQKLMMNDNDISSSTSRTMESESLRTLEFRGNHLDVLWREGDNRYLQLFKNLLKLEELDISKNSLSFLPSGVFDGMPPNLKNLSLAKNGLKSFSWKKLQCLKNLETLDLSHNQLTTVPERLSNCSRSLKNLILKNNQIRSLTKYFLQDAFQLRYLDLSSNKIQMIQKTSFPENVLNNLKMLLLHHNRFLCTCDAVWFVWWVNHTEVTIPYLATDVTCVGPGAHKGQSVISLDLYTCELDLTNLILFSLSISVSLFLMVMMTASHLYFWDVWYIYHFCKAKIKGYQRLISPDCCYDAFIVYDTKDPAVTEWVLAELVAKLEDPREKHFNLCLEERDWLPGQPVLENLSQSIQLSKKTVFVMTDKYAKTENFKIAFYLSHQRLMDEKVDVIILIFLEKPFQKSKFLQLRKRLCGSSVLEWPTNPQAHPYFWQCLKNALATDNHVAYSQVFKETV
Briefly: Cell-based TLR 7/8 assay, HEK-Blue TLR7 cells (SEAP reporter). The note with it: based on Compound concentration only; Compounds formulated as SNEs; read-out: huTLR7 EC50 (converted). The method, then:
(§1) HEK-Blue™ TLR7 and TLR8 cells (InvivoGen) were designed to assess the stimulation of TLR7 and TLR8 by monitoring the activation of NF-κB and AP-1. Compound B-1-SNE samples were diluted 1:2 across an 8-point titration in diluent buffer histidine/PS-20 in a sterile V-bottom plate. 20 μL of samples were transferred to corresponding wells of two flat bottom assay plates. Media was aspirated from HEK-Blue™ human TLR 7 and TLR 8 cells (T-75 flasks) and gently rinsed with pre-warmed (37° C.) DPBS for a total volume of 5 mL/flask. The DPBS was gently removed from the cells and cells were gently manually dislodged and resuspended in 2 mL of DPBS. Cell assay suspensions were then prepared at approximately 2.2×10^5 cells per mL of HEK-Blue™ detection medium (InvivoGen). 180 μL of cell suspension in detection medium was added to each well of the two flat bottom assay plates containing the diluted Compound B-1-SNE samples for a final dilution of sample equaling 1:10 (180 μL of cell suspension in detection medium and 20 μL of sample). The cells were then incubated at 37° C. in 5% CO2 for 20 hrs. The reporter gene, NF-Kb, induces the production of secreted embryonic alkaline phosphatase (SEAP) when stimulated and can be monitored using the vendor supplied SEAP detection kit. SEAP colorimetric changes were read at an absorbance of 640 nm using a SpectroMax Stakmax plate reader. […] EC50 values were calculated based on total Compound B-1-SNE concentration using GraphPad Prism Software and analyzed using agonist vs. response variable slope (four parameters) least squares fit.
(§2) Further to the description in Example 10, a cell-based activation system was used to assess activity of the Compound-formulated nanoemulsion systems, prepared as described in examples, supra. HEK-Blue™ TLR7 and TLR8 cells (InvivoGen) were designed to assess the stimulation of TLR7 and TLR8 by monitoring the activation of NF-κB and AP-1. Compound-SNE samples were diluted 1:2 across an 8-point titration in diluent buffer histidine/PS-20 in a sterile V-bottom plate. 20 μL of samples were transferred to corresponding wells of two flat bottom assay plates. Media was aspirated from HEK-Blue™ human TLR 7 and TLR 8 cells (T-75 flasks) and gently rinsed with pre-warmed (37° C.) DPBS for a total volume of 5 mL/flask. The DPBS was gently removed from the cells and cells were gently manually dislodged and resuspended in 2 mL of DPBS. Cell assay suspensions were then prepared at approximately 2.2×10^5 cells per mL of HEK-Blue™ detection medium (InvivoGen). 180 μL of cell suspension in detection medium was added to each well of the two flat bottom assay plates containing the diluted Compound-SNE samples for a final dilution of sample equaling 1:10 (180 μL of cell suspension in detection medium and 20 μL of sample). The cells were then incubated at 37° C. in 5% CO2 for 20 hrs. The reporter gene, NF-Kb, induces the production of secreted embryonic alkaline phosphatase (SLAP) when stimulated and can be monitored using the vendor supplied SLAP detection kit. SLAP colorimetric changes were read at an absorbance of 640 nm using a SpectroMax Stakmax plate reader. EC50s were calculated based on Compound concentration only, not total Compound-SNE concentration (Table 6) using GraphPad Prism Software and analyzed using agonist vs. response variable slope (four parameters) least squares fit.

The target in the next test is T2, human TLR8 (Homo sapiens, UniProt Q9NR97).
T2 construct: host or cells: HEK-Blue 293 cells expressing human TLR8
T2 sequence (Q9NR97 27-1041): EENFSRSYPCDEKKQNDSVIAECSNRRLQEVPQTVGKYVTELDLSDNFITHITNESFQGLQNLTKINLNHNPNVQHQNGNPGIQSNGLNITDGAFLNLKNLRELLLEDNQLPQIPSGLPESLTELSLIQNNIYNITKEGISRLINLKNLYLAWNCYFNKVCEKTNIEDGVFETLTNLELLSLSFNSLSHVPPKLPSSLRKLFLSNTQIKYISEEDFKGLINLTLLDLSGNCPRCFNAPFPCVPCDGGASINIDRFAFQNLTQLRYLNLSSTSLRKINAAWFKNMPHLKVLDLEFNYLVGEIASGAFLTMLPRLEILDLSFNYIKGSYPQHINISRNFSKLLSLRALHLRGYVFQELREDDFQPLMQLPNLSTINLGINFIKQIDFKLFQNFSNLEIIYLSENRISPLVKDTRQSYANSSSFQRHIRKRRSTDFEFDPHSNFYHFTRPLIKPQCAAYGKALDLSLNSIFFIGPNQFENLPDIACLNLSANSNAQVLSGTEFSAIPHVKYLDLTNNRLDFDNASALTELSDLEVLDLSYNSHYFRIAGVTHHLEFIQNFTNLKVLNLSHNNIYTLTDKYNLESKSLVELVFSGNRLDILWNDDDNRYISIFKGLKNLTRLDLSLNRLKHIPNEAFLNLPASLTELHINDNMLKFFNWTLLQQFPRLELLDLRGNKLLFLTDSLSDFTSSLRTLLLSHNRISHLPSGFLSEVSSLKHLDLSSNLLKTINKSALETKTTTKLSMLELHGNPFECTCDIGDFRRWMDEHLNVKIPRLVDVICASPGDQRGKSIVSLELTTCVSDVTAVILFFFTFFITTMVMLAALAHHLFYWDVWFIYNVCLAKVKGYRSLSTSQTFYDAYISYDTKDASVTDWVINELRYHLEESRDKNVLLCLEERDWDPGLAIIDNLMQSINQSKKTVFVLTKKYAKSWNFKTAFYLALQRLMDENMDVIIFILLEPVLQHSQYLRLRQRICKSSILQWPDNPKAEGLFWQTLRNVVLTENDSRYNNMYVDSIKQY
Description: Cell-based TLR 7/8 assay, HEK-Blue TLR8 cells (SEAP reporter). Conditions: based on Compound concentration only; Compounds formulated as SNEs; read-out: huTLR8 EC50 (converted). The method, then: as §1, §2

The structures appear in SMILES notation.

Regarding `CCCCCCCCCCCCCCCCCC(=O)NCCCCOn1c(CCCC)nc2c(N)nc3ccccc3c21` [Compound 3M-052], in test [1], the “serotype specific antibody responses (binding titers and opsonophagocytic killing)” value was “accelerated and enhanced serotype specific antibody responses”.
The term EC50 denotes the concentration needed to bring the measured effect to its halfway point. `CCCCC/C=C\C/C=C\CCCCCCCCC(CCCCCCCC/C=C\C/C=C\CCCCC)OC(=O)NCCCCN(C)Cc1cc(OC)c(Cn2cc3nc(N)nc(NCCCC)c3n2)c(OC)c1` [Compound D-1, (6Z,9Z,28Z,31Z)-heptatriaconta-6,9,28,31-tetraen-19-yl (4-((4-((5-amino-7-(butylamino)-2H-pyrazolo[4,3-d]pyrimidin-2-yl)methyl)-3,5-dimethoxybenzyl)(methyl)amino)butyl)carbamate]: the concentration giving a half-maximal response (EC50) at human TLR7 is 17.2 µM; at human TLR8 it was 155 µM.
The like results for `CCCCCCCCCCCCCCCCCC(=O)NCCCNC(=O)N1CCN(c2ccc(Cn3cc4nc(N)nc(NCCCC)c4n3)c(OC)c2)CC1` [Compound D-2, 4-(4-((5-amino-7-(butylamino)-2H-pyrazolo[4,3-d]pyrimidin-2-yl)methyl)-3-methoxyphenyl)-N-(3-stearamidopropyl)piperazine-1-carboxamide] were, in that order, 17.7 µM and 5.82 µM.
In the case of `CCCCCCCCCCCCCCCCCC(=O)NCCCOC(=O)N1CCN(c2ccc(Cn3cc4nc(N)nc(NCCCC)c4n3)c(OC)c2)CC1` [Compound D-3, 3-stearamidopropyl 4-(4-((5-amino-7-(butylamino)-2H-pyrazolo[4,3-d]pyrimidin-2-yl)methyl)-3-methoxyphenyl)piperazine-1-carboxylate], the EC50 on human TLR7 was 23.7 µM; at human TLR8, 13.8 µM.
